Test results published in ChEMBL document CHEMBL4043288, “( S)-2-Amino-3-(5-methyl-3-hydroxyisoxazol-4-yl)propanoic Acid (AMPA) and Kainate Receptor Ligands: Further Exploration of Bioisosteric Replacements and Structural and Biological Investigation” (J Med Chem, 2018).
The source made the active and inactive calls. No cut-off for these calls is given here.

Experiments:
Rattus norvegicus [1] = assay: Analgesic activity in Wistar Han rat assessed as inhibition of formalin-induced pain by measuring paw-jerk frequency in early phase at 2 mg/kg, ip administered 30 mins prior to formalin injection measured for first 15 mins after formalin injection; type: functional, organism-based
Rattus norvegicus [2] = assay: Analgesic activity in Wistar Han rat assessed as inhibition of formalin-induced pain by measuring time spent licking injected paw in late phase at 2 mg/kg, ip administered 30 mins prior to formalin injection measured for 15 to 60 mins after formalin injection
[3] = Permeability of compound in rat brain at 100 uM perfused for 60 secs by LC-MS analysis; type: ADME, tissue-based; settings: not told, other: brain perfusion, read-out: permeability
Rattus norvegicus [4] = assay: Analgesic activity in Wistar Han rat assessed as inhibition of formalin-induced pain by measuring flexing duration in late phase at 2 mg/kg, ip administered 30 mins prior to formalin injection measured for 15 to 60 mins after formalin injection
Rattus norvegicus [5] = assay: Analgesic activity in Wistar Han rat assessed as inhibition of formalin-induced pain by measuring time spent licking injected paw in early phase at 2 mg/kg, ip administered 30 mins prior to formalin injection measured for first 15 mins after formalin injection; type: functional, organism-based
Rattus norvegicus [6] = assay: Analgesic activity in Wistar Han rat assessed as inhibition of formalin-induced pain by measuring flexing duration in early phase at 2 mg/kg, ip administered 30 mins prior to formalin injection measured for first 15 mins after formalin injection; type: functional, organism-based
Rattus norvegicus [7] = assay: Analgesic activity in Wistar Han rat assessed as inhibition of formalin-induced pain by measuring paw-jerk frequency in early phase at 2 mg/kg, ip administered 30 mins prior to formalin injection measured for 15 to 60 mins after formalin injection; type: functional, organism-based
Rattus norvegicus [8] = assay: Analgesic activity in Wistar Han rat assessed as inhibition of formalin-induced pain by measuring locomotor activities at 2 mg/kg, ip administered 30 mins prior to formalin injection measured after 30 mins by formalin test; type: functional, organism-based
[9] = molecular target: Glutamate receptor ionotropic, kainate 1 (Rattus norvegicus, UniProt P22756); assay: Displacement of [3H]SYM2081 from recombinant homomeric rat GluK1 receptor expressed in baculovirus infected Sf9 insect cell membranes
Glutamate receptor ionotropic, kainate 1, sequence (P22756 whole entry): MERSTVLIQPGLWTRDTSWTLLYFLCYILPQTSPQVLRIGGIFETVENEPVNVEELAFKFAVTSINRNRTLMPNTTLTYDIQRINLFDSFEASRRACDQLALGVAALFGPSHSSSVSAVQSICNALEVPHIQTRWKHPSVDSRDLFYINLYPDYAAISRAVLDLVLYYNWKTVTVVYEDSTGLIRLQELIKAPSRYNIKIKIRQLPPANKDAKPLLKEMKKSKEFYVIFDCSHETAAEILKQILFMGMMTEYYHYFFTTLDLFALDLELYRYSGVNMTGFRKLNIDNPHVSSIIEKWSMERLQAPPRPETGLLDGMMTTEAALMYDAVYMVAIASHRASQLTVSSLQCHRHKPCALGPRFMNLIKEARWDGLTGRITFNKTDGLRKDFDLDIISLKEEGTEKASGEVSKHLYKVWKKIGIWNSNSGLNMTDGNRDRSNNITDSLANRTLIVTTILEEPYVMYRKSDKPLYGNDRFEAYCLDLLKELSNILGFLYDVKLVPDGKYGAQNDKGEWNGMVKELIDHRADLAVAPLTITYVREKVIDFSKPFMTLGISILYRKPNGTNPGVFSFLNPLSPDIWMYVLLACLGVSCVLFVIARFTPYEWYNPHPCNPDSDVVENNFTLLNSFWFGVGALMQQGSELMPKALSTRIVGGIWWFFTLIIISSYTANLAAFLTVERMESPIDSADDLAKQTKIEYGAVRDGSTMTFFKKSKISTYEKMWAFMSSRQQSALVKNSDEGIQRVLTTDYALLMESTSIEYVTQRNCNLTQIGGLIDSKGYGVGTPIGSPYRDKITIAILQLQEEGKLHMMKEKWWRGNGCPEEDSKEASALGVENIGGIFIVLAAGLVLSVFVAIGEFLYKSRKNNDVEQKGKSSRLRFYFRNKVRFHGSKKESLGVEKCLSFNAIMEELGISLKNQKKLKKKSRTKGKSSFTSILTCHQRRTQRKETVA

[10] = molecular target: Glutamate receptor ionotropic, kainate 3 (Rattus norvegicus, UniProt P42264); assay: Displacement of [3H]SYM2081 from recombinant homomeric rat GluK3 receptor expressed in baculovirus infected Sf9 insect cell membranes
Glutamate receptor ionotropic, kainate 3, sequence (P42264 whole entry): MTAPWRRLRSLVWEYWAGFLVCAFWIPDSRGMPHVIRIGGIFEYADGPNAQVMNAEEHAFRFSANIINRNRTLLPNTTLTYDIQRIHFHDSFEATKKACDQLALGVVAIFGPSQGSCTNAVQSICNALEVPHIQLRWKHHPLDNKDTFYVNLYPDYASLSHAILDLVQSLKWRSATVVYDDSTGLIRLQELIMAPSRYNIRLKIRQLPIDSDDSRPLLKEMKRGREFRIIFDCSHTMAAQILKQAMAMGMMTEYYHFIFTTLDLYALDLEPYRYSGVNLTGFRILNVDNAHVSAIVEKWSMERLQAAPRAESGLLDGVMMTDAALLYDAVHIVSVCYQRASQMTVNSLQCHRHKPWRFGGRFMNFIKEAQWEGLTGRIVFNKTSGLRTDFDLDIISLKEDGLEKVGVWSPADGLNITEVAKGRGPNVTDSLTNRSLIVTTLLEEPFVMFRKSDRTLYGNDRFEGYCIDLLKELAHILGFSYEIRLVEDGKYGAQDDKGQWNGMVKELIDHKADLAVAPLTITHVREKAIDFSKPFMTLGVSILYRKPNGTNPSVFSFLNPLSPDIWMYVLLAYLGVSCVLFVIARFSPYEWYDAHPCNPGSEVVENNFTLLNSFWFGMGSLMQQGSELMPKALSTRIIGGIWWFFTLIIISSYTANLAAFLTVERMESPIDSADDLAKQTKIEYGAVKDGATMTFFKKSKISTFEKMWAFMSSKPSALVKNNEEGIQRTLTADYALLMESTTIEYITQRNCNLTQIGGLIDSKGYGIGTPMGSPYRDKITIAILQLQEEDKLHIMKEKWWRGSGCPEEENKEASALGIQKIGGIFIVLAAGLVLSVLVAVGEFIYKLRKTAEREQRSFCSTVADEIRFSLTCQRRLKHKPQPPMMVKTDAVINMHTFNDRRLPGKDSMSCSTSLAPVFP

[11] = molecular target: Glutamate receptor ionotropic, kainate 2 (Rattus norvegicus, UniProt P42260); assay: Displacement of [3H]SYM2081 from recombinant homomeric rat GluK2 receptor expressed in baculovirus infected Sf9 insect cell membranes
Glutamate receptor ionotropic, kainate 2, sequence (P42260 whole entry): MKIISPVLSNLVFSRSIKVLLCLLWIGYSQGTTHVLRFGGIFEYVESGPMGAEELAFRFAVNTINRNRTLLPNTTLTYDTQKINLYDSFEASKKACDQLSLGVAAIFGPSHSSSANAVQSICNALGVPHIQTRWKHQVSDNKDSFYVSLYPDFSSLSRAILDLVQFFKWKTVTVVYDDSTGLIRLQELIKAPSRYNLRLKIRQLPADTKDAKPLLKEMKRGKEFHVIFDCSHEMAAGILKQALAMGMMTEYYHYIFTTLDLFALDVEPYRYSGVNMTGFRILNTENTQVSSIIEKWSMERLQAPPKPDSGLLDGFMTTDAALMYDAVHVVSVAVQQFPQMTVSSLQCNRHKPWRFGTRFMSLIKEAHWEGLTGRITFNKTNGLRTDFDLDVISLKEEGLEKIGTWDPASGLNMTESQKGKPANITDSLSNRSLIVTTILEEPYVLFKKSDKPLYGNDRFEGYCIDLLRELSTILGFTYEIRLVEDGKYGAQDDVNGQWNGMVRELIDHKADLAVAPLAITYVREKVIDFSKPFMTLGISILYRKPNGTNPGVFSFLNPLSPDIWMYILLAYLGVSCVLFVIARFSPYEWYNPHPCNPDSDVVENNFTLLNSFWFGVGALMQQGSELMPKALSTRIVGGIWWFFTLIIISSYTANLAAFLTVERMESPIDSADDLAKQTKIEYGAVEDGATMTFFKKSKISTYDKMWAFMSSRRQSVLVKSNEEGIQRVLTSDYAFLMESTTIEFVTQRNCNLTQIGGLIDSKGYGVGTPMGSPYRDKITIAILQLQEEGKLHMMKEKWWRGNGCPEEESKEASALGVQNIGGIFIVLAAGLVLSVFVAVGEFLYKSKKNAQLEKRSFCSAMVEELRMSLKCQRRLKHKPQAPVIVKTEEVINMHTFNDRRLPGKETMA

Glutamate receptor 2 = Glutamate receptor 2 (Rattus norvegicus, UniProt P19491); assay: Displacement of [3H]AMPA from recombinant homomeric rat GluA2 receptor expressed in baculovirus infected Sf9 insect cell membranes
Glutamate receptor 2, sequence (P19491 whole entry): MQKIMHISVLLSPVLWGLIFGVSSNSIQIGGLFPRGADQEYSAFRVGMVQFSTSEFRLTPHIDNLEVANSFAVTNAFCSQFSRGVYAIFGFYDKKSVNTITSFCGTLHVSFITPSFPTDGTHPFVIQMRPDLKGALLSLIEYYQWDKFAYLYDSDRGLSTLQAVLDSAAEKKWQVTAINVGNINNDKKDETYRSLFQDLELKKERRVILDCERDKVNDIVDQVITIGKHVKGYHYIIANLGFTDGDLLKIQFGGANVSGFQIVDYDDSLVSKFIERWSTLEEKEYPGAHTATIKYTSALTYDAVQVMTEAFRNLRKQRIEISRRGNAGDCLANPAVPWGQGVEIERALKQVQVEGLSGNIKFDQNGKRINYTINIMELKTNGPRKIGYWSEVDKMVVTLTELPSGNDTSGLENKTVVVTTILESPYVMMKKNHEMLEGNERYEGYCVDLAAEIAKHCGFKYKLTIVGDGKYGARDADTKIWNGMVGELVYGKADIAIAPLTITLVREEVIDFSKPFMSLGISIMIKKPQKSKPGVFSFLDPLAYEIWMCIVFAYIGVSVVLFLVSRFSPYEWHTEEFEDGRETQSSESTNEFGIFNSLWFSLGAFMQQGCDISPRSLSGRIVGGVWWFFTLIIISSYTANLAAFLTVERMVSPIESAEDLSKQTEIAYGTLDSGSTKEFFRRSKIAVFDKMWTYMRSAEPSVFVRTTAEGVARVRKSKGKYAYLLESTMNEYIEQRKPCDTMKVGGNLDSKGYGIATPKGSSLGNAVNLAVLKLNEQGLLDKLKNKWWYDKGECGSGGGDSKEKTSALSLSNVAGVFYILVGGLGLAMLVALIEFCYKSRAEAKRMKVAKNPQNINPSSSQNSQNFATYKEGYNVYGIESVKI

Rattus norvegicus [12] = species: Rattus norvegicus; assay: Selectivity ratio of Ki for recombinant homomeric rat GluK3 expressed in Sf9 insect cells to Ki for recombinant homomeric rat GluK1 expressed in Sf9 insect cells
Rattus norvegicus [13] = species: Rattus norvegicus; assay: Selectivity ratio of Ki for recombinant homomeric rat GluK3 expressed in Sf9 insect cells to Ki for recombinant homomeric rat GluA2 expressed in Sf9 insect cells
Rattus norvegicus [14] = assay: Analgesic activity in Wistar Han rat assessed as inhibition of formalin-induced pain by measuring locomotor activities at 2 mg/kg, ip administered 30 mins prior to formalin injection measured after 45 mins by formalin test; type: functional, organism-based

Structure (SMILES)	Activity (Rattus norvegicus [1])	Activity (Rattus norvegicus [2])	Papp at 1 min, 100 µM [3]	Activity (Rattus norvegicus [4])	Activity (Rattus norvegicus [5])	Activity (Rattus norvegicus [6])	Activity (Rattus norvegicus [7])	Activity (Rattus norvegicus [8])	Ki [9]	Ki [10]	Ki [11]	Ki (Glutamate receptor 2)	Ratio Ki (Rattus norvegicus [12])	Ratio Ki (Rattus norvegicus [13])	Activity (Rattus norvegicus [14])
N[C@@H](Cn1c(=O)n(Cc2ccsc2C(=O)O)c(=O)c2cscc21)C(=O)O	Active	Active	0.59 ×10⁻⁶ cm/s	Active	Active	Active	Active	Active							
N[C@@H](Cn1c2c(c(=O)[nH]c1=O)COC2)C(=O)O									0.586 µM	111 µM	> 1000 µM				
N[C@@H](Cn1c(=O)n(Cc2nnc(O)o2)c(=O)c2cscc21)C(=O)O									36 µM	100 µM	> 1000 µM	> 100 µM	> 3		
CN1Cc2c(n(C[C@H](N)C(=O)O)c(=O)[nH]c2=O)C1									0.356 µM	2.15 µM	> 1000 µM	1.99 µM	6	1	
N[C@@H](Cn1c2c(c(=O)[nH]c1=O)CNC2)C(=O)O									0.869 µM	18.1 µM	> 1000 µM	2.37 µM	21	8	
N[C@@H](Cn1c2c(c(=O)[nH]c1=O)CCC2)C(=O)O											> 1000 µM				
N[C@@H](Cn1c(=O)[nH]c(=O)c2cscc21)C(=O)O	Active	Active		Active	Active	Active	Active	Active							Active
